Measurements taken from ChEMBL document CHEMBL5352390, “Design, synthesis and biological evaluation of (Quinazoline 4-yloxy)acetamide and (4-oxoquinazoline-3(4H)-yl)acetamide derivatives as inhibitors of Mycobacterium tuberculosis bd oxidase” (2022).
≈ marks a conversion by molar mass, not a printed value. Calls of active or inactive are those of the source. No cut-off for these calls is given here.

Key:
[1] = test system: Mycobacterium tuberculosis; experiment: Antimycobacterial activity against wild type Mycobacterium tuberculosis H37Rv assessed as inhibition of bacterial growth incubated for 7 days by resazurin microplate assay; assay type: functional; settings: 168 h, time 7 day
[2] = test system: Mycobacterium tuberculosis; experiment: Bactericidal activity against wild type Mycobacterium tuberculosis H37Rv under hypoxia condition assessed as reduction in log10 CFU at 0.03 uM incubated for 3 days by Methylene blue dye based CFU assay; assay type: functional; settings: time 3 day
[3] = test system: Mycobacterium tuberculosis; experiment: (§1) Inhibition of wild type Mycobacterium tuberculosis H37Rv cytochrome bd oxidase assessed as reduction in total cellular ATP level by measuring relative luminescence unit at 0.1 uM incubated for 15 hrs by BacTiter-Glo microbial cell viability reagent based bioluminescence assay relative to control (Rvb= 13.73%)
[4] = test system: Mycobacterium tuberculosis; experiment: Inhibition of wild type Mycobacterium tuberculosis H37Rv cytochrome bd oxidase assessed as inhibition of oxygen consumption at 0.1 uM and measured after 5 days by Methylene blue dye based assay; settings: time 5.0 day
[5] = test system: Mycobacterium tuberculosis; experiment: Synergistic antimycobacterial activity against wild type Mycobacterium tuberculosis H37Rv assessed as fractional inhibitory concentration index incubated for 7 days in presence of Q203 by checkboard format based resazurin microplate assay; assay type: functional; settings: time 7 day
[6] = test system: Mycobacterium tuberculosis; experiment: Bactericidal activity against wild type Mycobacterium tuberculosis H37Rv under hypoxia condition assessed as reduction in log10 CFU at 32 uM incubated for 3 days by Methylene blue dye based CFU assay; assay type: functional; settings: time 3 day
[7] = test system: Mycobacterium tuberculosis; experiment: Synergistic bactericidal activity against wild type Mycobacterium tuberculosis H37Rv under hypoxia condition assessed as reduction in log10 CFU at 32 uM incubated for 3 days in presence of Q203 by Methylene blue dye based CFU assay; assay type: functional; settings: time 3 day
[8] = test system: Mycobacterium tuberculosis; experiment: as §1, with “32” for “0.1”
[9] = test system: Mycobacterium tuberculosis; experiment: as §1, with “32” for “0.1”, “hrs in presence of Q203” for “hrs”
[10] = test system: Mycobacterium tuberculosis; experiment: Inhibition of wild type Mycobacterium tuberculosis H37Rv cytochrome bd oxidase assessed as inhibition of oxygen consumption at 16 to 64 uM and measured after 5 days by Methylene blue dye based assay; settings: dose 16-64 µM, time 5.0 day
[11] = test system: Mycobacterium tuberculosis; experiment: Inhibition of wild type Mycobacterium tuberculosis H37Rv cytochrome bd oxidase assessed as inhibition of oxygen consumption at 16 to 64 uM and measured for 20 days in presence of Q203 by Methylene blue dye based assay; settings: dose 16-64 µM, time 20.0 day
[12] = test system: Mycobacterium tuberculosis; experiment: Bactericidal activity against wild type Mycobacterium tuberculosis H37Rv under hypoxia condition assessed as reduction in log10 CFU at 0.5 uM incubated for 3 days by Methylene blue dye based CFU assay; assay type: functional; settings: time 3 day
[13] = test system: Mycobacterium tuberculosis; experiment: Bactericidal activity against wild type Mycobacterium tuberculosis H37Rv under hypoxia condition assessed as reduction in log10 CFU at 0.5 ug/ml incubated for 3 days by Methylene blue dye based CFU assay; assay type: functional, organism-based; settings: dose 0.5 µg/ml, time 3.0 day

Compound	MIC [1] [µM]	other results
CCc1nc2ccc(Cl)cn2c1C(=O)NCc1ccc(N2CCC(c3ccc(OC(F)(F)F)cc3)CC2)cc1 [TELACEBEC]	0.016 (≈ 0.00891 µg/mL)	Activity [2]: 0.8 log10CFU; inhibition [3]: 33.4%; inhibition [4]: inactive
O=C(COc1ncnc2ccccc12)Nc1ccc(Br)cc1	> 32	
O=C(COc1ncnc2ccccc12)Nc1ccc(OC(F)(F)F)cc1	> 32	
O=C(Cn1cnc2ccccc2c1=O)Nc1ccc(Br)cc1	> 32	
O=C(COc1ncnc2ccccc12)NCc1ccc(N2CCN(Cc3ccccc3)CC2)cc1	> 32	
O=C(COc1ncnc2ccccc12)Nc1ccccc1	128 (≈ 35.8 µg/mL)	fractional inhibitory concentration index (FICI) [5]: 1.062; Activity [6]: 1.9 log10CFU; Activity [7]: 4 log10CFU; inhibition [8]: 7%; inhibition [9]: 89.8%; inhibition [10]: inactive; inhibition [11]: Active
Cc1ccc(NC(=O)COc2ncnc3ccccc23)cc1	> 32	
O=C(Cn1cnc2ccccc2c1=O)Nc1ccc(OC(F)(F)F)cc1	> 32	
O=C(COc1ncnc2ccccc12)NCc1ccc(N2CCN(c3ccc(F)cc3)CC2)cc1	> 32	
COc1ccc(NC(=O)Cn2cnc3ccccc3c2=O)cc1	> 32	
COc1nc2ccc(Br)cc2cc1[C@@H](c1ccccc1)[C@@](O)(CCN(C)C)c1cccc2ccccc12 [BEDAQUILINE]		Activity [12]: 2.3 log10CFU
O=C(Cn1cnc2ccccc2c1=O)NC1=C(C(F)(F)F)CCC=C1	> 32	
O=C(Cn1cnc2ccccc2c1=O)Nc1ccc(F)cc1	> 32	
O=C(COc1ncnc2ccccc12)Nc1ccc(Cl)cc1	256 (≈ 80.3 µg/mL)	fractional inhibitory concentration index (FICI) [5]: 0.375; Activity [6]: 1.9 log10CFU; Activity [7]: 4 log10CFU; inhibition [8]: 22.8%; inhibition [9]: 91.2%; inhibition [10]: inactive; inhibition [11]: Active
O=C(COc1ncnc2ccccc12)NCc1ccc(N2CCN(c3ccccc3)CC2)cc1	> 32	
O=C(Cn1cnc2ccccc2c1=O)Nc1ccc(Cl)cc1	> 32	

Compound	MIC [1] [µM]	other results
COc1ccc(NC(=O)COc2ncnc3ccccc23)cc1	> 32	
COc1ccccc1NC(=O)COc1ncnc2ccccc12	> 32	
NNC(=O)c1ccncc1		Activity [13]: inactive
O=C(Cn1cnc2ccccc2c1=O)Nc1ccc(C(F)(F)F)cc1	> 32	
COc1ccc(N2CCN(c3ccc(CNC(=O)COc4ncnc5ccccc45)cc3)CC2)cc1	> 32	
O=C(Cn1cnc2ccccc2c1=O)Nc1ccccc1	> 32	
O=C(COc1ncnc2ccccc12)NCc1ccccc1	> 32	
O=C(COc1ncnc2ccccc12)NCc1ccc(N2CCC(c3ccccc3)CC2)cc1	> 32	
O=C(COc1ncnc2ccccc12)Nc1ccc(F)cc1	> 32	
COc1ccccc1NC(=O)Cn1cnc2ccccc2c1=O	> 32	
Cc1ccc(NC(=O)Cn2cnc3ccccc3c2=O)cc1	> 32	
O=C(COc1ncnc2ccccc12)Nc1ccc(C(F)(F)F)cc1	> 32	
Cc1ccccc1NC(=O)COc1ncnc2ccccc12	> 32	
CSc1ccc(NC(=O)Cn2cnc3ccccc3c2=O)cc1	> 32	
O=C(COc1ncnc2ccccc12)Nc1cccc2ccccc12	> 32	
O=C(Cn1cnc2ccccc2c1=O)Nc1ccc([N+](=O)[O-])cc1	> 32	
